Assay results: PubChem BioAssay (NCI)
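In this assay, cells in 96-well plates receive the compound at five concentrations for 48 hours. Endpoints are linearly interpolated between the surrounding concentrations. At the GI50, growth is halved. TGI denotes the concentration required for complete inhibition of growth.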

Columns and labels:
Assay in all cases: growth of human tumour cells (NCI), 48 h
PC-3 prostate = system: PC-3 prostate
HOP-92 NSCLC = system: HOP-92 NSCLC
SK-MEL-28 melanoma = system: SK-MEL-28 melanoma
HCT-116 colon = system: HCT-116 colon
MCF7 breast = system: MCF7 breast
NCI-H522 lung = system: NCI-H522 lung
U251 CNS = system: U251 CNS
MALME-3M melanoma = system: MALME-3M melanoma
KM12 colon = system: KM12 colon
HCT-15 colon = system: HCT-15 colon
OVCAR-3 ovarian = system: OVCAR-3 ovarian
OVCAR-5 ovarian = system: OVCAR-5 ovarian
HT29 colon = system: HT29 colon
SN12C renal = system: SN12C renal
SK-MEL-5 melanoma = system: SK-MEL-5 melanoma
OVCAR-4 ovarian = system: OVCAR-4 ovarian
786-0 renal = system: 786-0 renal
HOP-62 NSCLC = system: HOP-62 NSCLC
MDA-MB-435 = system: MDA-MB-435
SW-620 colon = system: SW-620 colon
T-47D breast = system: T-47D breast
TK-10 renal = system: TK-10 renal
MDA-MB-231 breast = system: MDA-MB-231 breast
M14 melanoma = system: M14 melanoma
IGROV1 ovarian = system: IGROV1 ovarian
CAKI-1 renal = system: CAKI-1 renal
UACC-62 melanoma = system: UACC-62 melanoma
DU-145 prostate = system: DU-145 prostate
SF-268 CNS = system: SF-268 CNS
SK-OV-3 ovarian = system: SK-OV-3 ovarian
SF-539 CNS = system: SF-539 CNS
K-562 leukemia = system: K-562 leukemia
RXF 393 renal = system: RXF 393 renal
OVCAR-8 ovarian = system: OVCAR-8 ovarian
NCI/ADR-RES ovarian = system: NCI/ADR-RES ovarian
HL-60(TB) leukemia = system: HL-60(TB) leukemia
NCI-H23 lung = system: NCI-H23 lung
HS 578T breast = system: HS 578T breast
NCI-H460 lung = system: NCI-H460 lung
COLO 205 colon = system: COLO 205 colon
SK-MEL-2 melanoma = system: SK-MEL-2 melanoma
SNB-19 CNS = system: SNB-19 CNS
A549 NSCLC = system: A549 NSCLC
SR leukemia = system: SR leukemia
MOLT-4 leukemia = system: MOLT-4 leukemia
UACC-257 melanoma = system: UACC-257 melanoma
SF-295 CNS = system: SF-295 CNS
UO-31 renal = system: UO-31 renal
SNB-75 CNS = system: SNB-75 CNS
ACHN renal = system: ACHN renal
NCI-H226 lung = system: NCI-H226 lung
CCRF-CEM leukemia = system: CCRF-CEM leukemia
HCC-2998 colon = system: HCC-2998 colon
LOX IMVI melanoma = system: LOX IMVI melanoma
EKVX NSCLC = system: EKVX NSCLC
RPMI-8226 leukemia = system: RPMI-8226 leukemia
A498 renal = system: A498 renal
BT-549 breast = system: BT-549 breast

Clc1ccccc1CN1COc2c(cc(Cl)c3cccnc23)C1
TGI (PC-3 prostate): 18.7 µM | TGI (HOP-92 NSCLC): 23 µM | TGI (SK-MEL-28 melanoma): 25.9 µM | TGI (HCT-116 colon): 15.4 µM | TGI (MCF7 breast): 86.5 µM | TGI (NCI-H522 lung): 15.7 µM | TGI (U251 CNS): 14.1 µM | TGI (MALME-3M melanoma): 11.1 µM | TGI (KM12 colon): 14.6 µM | TGI (HCT-15 colon): 10.9 µM | TGI (OVCAR-3 ovarian): 26.4 µM | TGI (OVCAR-5 ovarian): 15.1 µM | TGI (HT29 colon): 36.6 µM | TGI (SN12C renal): 0.494 µM | TGI (SK-MEL-5 melanoma): 5.78 µM | TGI (OVCAR-4 ovarian): 14.2 µM | TGI (786-0 renal): 18.9 µM | TGI (HOP-62 NSCLC): 18.7 µM | TGI (MDA-MB-435): 20.9 µM | TGI (SW-620 colon): 21 µM | TGI (T-47D breast): > 100 µM | TGI (TK-10 renal): 26.5 µM | TGI (MDA-MB-231 breast): 9.33 µM | TGI (M14 melanoma): 21.7 µM | TGI (IGROV1 ovarian): 23.7 µM | TGI (CAKI-1 renal): 24 µM | TGI (UACC-62 melanoma): 3.8 µM | TGI (DU-145 prostate): 21 µM | TGI (SF-268 CNS): 46.5 µM | TGI (SK-OV-3 ovarian): 21.2 µM | TGI (SF-539 CNS): 10.9 µM | TGI (K-562 leukemia): 11.9 µM | TGI (RXF 393 renal): 39.6 µM | TGI (OVCAR-8 ovarian): 13.9 µM | TGI (NCI/ADR-RES ovarian): 1.74 µM | TGI (HL-60(TB) leukemia): 8.9 µM | TGI (NCI-H23 lung): 13.2 µM | TGI (HS 578T breast): 23.4 µM | TGI (NCI-H460 lung): 27.4 µM | TGI (COLO 205 colon): 43.2 µM | TGI (SK-MEL-2 melanoma): 26.1 µM | TGI (SNB-19 CNS): 17.2 µM | TGI (A549 NSCLC): 13.6 µM | TGI (SR leukemia): 4 µM | TGI (MOLT-4 leukemia): 1.12 µM | TGI (UACC-257 melanoma): 12.3 µM | TGI (SF-295 CNS): 16.6 µM | TGI (UO-31 renal): 21.7 µM | TGI (SNB-75 CNS): 18.8 µM | TGI (ACHN renal): 13.4 µM | TGI (NCI-H226 lung): 4.09 µM

COc1ccc(OC)c2c1C=C[C@H](C1(C)SCCS1)C2C(C)=O (stereo partly drawn)
TGI (PC-3 prostate): > 100 µM | TGI (HOP-92 NSCLC): > 100 µM | TGI (SK-MEL-28 melanoma): > 100 µM | TGI (CCRF-CEM leukemia): > 100 µM | TGI (HCT-116 colon): 65.3 µM | TGI (MCF7 breast): > 100 µM | TGI (NCI-H522 lung): 41.5 µM | TGI (U251 CNS): 73.2 µM | TGI (MALME-3M melanoma): 89.8 µM | TGI (KM12 colon): 99.5 µM | TGI (HCC-2998 colon): > 100 µM | TGI (HCT-15 colon): > 100 µM | TGI (OVCAR-3 ovarian): 61.5 µM | TGI (OVCAR-5 ovarian): 65.6 µM | TGI (HT29 colon): 33.8 µM | TGI (SN12C renal): > 100 µM | TGI (SK-MEL-5 melanoma): 47.1 µM | TGI (OVCAR-4 ovarian): > 100 µM | TGI (786-0 renal): > 100 µM | TGI (HOP-62 NSCLC): > 100 µM | TGI (MDA-MB-435): > 100 µM | TGI (SW-620 colon): > 100 µM | TGI (T-47D breast): > 100 µM | TGI (TK-10 renal): > 100 µM | TGI (MDA-MB-231 breast): > 100 µM | TGI (M14 melanoma): > 100 µM | TGI (IGROV1 ovarian): > 100 µM | TGI (CAKI-1 renal): 90 µM | TGI (UACC-62 melanoma): > 100 µM | TGI (DU-145 prostate): 97.9 µM | TGI (SF-268 CNS): > 100 µM | TGI (SK-OV-3 ovarian): 70.9 µM | TGI (LOX IMVI melanoma): 81.8 µM | TGI (SF-539 CNS): 48.2 µM | TGI (K-562 leukemia): > 100 µM | TGI (RXF 393 renal): 92.3 µM | TGI (OVCAR-8 ovarian): > 100 µM | TGI (NCI/ADR-RES ovarian): > 100 µM | TGI (HL-60(TB) leukemia): 41.3 µM | TGI (NCI-H23 lung): 71.6 µM | TGI (HS 578T breast): 45.6 µM | TGI (NCI-H460 lung): 76.5 µM | TGI (SNB-19 CNS): 81.1 µM | TGI (EKVX NSCLC): > 100 µM | TGI (RPMI-8226 leukemia): 58.6 µM | TGI (A549 NSCLC): > 100 µM | TGI (SR leukemia): 59.2 µM | TGI (A498 renal): 78.2 µM | TGI (MOLT-4 leukemia): 60.6 µM | TGI (UACC-257 melanoma): > 100 µM | TGI (SF-295 CNS): 65.5 µM | TGI (UO-31 renal): 59.7 µM | TGI (ACHN renal): > 100 µM | TGI (NCI-H226 lung): 63.4 µM

NC(=O)c1ncn(CC2(COC(=O)c3ccccc3)CCC2)n1
GI50 (BT-549 breast): 82.1 µM | GI50 (SNB-75 CNS): 9.86 µM | TGI (SNB-75 CNS): 92.5 µM
